Source: ChEMBL document CHEMBL1201862, “PubChem BioAssay data set” (2004)
Activity calls are given as the source filed them.

Experiments:
[1] = target: T1, Cytochrome P450 1A2 (Homo sapiens, UniProt P05177);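 note: PubChem cytochrome P450 panel assay, CYP1A2 panel member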
T1 sequence (P05177 whole entry): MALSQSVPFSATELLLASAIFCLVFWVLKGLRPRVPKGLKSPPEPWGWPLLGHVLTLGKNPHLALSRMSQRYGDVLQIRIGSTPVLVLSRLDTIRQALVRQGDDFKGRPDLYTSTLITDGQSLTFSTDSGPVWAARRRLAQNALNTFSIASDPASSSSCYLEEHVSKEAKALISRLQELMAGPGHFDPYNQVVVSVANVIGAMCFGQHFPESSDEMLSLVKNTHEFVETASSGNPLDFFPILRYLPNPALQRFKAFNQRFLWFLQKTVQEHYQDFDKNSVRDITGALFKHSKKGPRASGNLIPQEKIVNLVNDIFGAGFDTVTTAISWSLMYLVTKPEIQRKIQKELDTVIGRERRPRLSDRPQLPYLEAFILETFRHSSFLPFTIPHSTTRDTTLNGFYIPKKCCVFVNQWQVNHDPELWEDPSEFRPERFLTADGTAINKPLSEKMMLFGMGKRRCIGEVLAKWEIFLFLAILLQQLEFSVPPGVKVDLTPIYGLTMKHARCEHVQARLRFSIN

[2] = target: Cytochrome P450 3A4 (Homo sapiens, UniProt P08684);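 note: CYP3A4 tested as one member of a cytochrome P450 panel screen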
[3] = target: Cytochrome P450 2C9 (Homo sapiens, UniProt P11712)
[4] = target: Cytochrome P450 2C19 (Homo sapiens, UniProt P33261); assay: Cytochrome panel assay with activity outcomes. Panel member name: p450-cyp2c19 Compounds with AC50 equal or less than 10 uM are considered active; assay type: functional
[5] = Luminescence Cell-Based Dose Retest to Confirm Inhibitors of Cancer Stem Cells. [Related pubchem assays (depositor defined):AID2717, AID2721]; assay type: functional; settings: Homo sapiens
[6] = Luminescence Cell-Based Dose Response HTS to Identify Activators of Luciferase Translation or Activity in H4 […] Cells. [Related pubchem assays: 1829 (Project Summary), 1814 (Primary HTS)]; assay type: functional
[7] = system: H4; assay: Luminescence Cell-Based Dose Response HTS to Identify Activators of 5'UTR Stem-Loop Driven Prion Protein mRNA Translation in H4 Neuroglioblastoma Cells. [Related pubchem assays: 1829 (Project Summary), 1814 (Primary HTS)]; assay type: functional; settings: Homo sapiens
[8] = target: T2, Corticotropin-releasing factor receptor 2/Corticotropin-releasing factor-binding protein (Homo sapiens, UniProt P24387+Q13324); assay: activators of CRF receptor 2 with binding protein – uHTS hits, confirmation (AID 602473); assay type: functional; settings: read-out: EC50_Mean
T2 sequence (Q13324 whole entry): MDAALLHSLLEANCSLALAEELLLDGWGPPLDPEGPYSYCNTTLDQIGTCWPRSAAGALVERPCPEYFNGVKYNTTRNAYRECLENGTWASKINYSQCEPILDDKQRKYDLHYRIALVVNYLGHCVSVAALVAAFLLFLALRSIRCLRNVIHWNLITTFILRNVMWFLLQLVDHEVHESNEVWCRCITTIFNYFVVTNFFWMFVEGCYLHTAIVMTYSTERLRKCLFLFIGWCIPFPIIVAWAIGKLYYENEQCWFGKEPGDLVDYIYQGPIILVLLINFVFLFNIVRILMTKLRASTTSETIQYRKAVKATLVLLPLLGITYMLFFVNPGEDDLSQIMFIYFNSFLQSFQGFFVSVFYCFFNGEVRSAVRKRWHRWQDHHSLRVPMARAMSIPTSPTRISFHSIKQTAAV
T2 sequence (P24387 whole entry): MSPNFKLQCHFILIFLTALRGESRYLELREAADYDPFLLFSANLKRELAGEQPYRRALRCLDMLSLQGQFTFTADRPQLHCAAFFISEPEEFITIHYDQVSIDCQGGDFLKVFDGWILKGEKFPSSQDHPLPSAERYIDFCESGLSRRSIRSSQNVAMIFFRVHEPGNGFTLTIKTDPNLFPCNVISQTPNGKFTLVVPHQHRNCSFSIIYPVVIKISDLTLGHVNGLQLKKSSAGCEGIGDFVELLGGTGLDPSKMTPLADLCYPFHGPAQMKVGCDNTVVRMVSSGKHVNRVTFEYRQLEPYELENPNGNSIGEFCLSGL

[9] = system: Streptococcus sp. 'group A'; assay: growth inhibition of control SK(-) GAS strain, dose response, counter-screen for streptokinase expression inhibitor project, luminescence, kanamycin, BacTiterGlo, confirmation (AID 1900); assay type: functional, organism-based
[10] = system: Streptococcus; assay: Group A Streptococcus viability loss, dose response, counter-screen for streptokinase expression inhibitor project, luminescence, BacTiterGlo (AID 1915); assay type: functional, organism-based;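 note: potency for reduction of bacterial viability or growth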
[11] = inhibitors of intracellular T. cruzi replication, confirmation, NIH3T3 host cells, beta-gal luminescence (AID 2044); assay type: functional, cell-based;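 note: intracellular parasites grown in NIH/3T3 mouse fibroblasts as host cells; luminescent beta-galactosidase reporter signal from transgenic T. cruzi replicating inside host cells; inhibitors lower the luminescence signal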
[12] = cytotoxicity toward NIH3T3 fibroblasts, dose response, counter-screen, cell-based, ATP luminescence, mouse fibroblasts (AID 2010); assay type: functional;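 note: cells exposed to compound for about 90 hours before reading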
[13] = system: INS1; assay: beta cell apoptosis inhibitors, cytokine rescue, dose response, luminescence, retest (AID 449756); assay type: functional, cell-based; settings: Rattus norvegicus;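 note: cell death triggered by IL-1 beta plus TNF-alpha plus IFN-gamma mixture; protective hits raise ATP signal compared with cytokine alone wells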

Cytochrome P450 3A4, sequence (P08684 whole entry): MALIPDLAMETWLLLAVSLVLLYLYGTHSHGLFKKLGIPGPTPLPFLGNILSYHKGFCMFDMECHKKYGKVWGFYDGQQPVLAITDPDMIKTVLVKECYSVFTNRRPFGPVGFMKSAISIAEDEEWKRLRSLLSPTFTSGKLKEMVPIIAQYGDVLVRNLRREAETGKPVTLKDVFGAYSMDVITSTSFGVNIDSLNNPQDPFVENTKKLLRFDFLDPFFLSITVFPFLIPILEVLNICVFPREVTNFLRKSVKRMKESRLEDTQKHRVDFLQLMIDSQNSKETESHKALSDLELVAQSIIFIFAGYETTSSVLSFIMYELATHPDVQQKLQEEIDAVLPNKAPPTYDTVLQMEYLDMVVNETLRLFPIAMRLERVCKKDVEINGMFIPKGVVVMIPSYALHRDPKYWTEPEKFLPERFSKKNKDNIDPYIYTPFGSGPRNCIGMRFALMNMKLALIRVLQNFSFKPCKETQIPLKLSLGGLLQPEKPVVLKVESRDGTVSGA
Cytochrome P450 2C9, sequence (P11712 whole entry): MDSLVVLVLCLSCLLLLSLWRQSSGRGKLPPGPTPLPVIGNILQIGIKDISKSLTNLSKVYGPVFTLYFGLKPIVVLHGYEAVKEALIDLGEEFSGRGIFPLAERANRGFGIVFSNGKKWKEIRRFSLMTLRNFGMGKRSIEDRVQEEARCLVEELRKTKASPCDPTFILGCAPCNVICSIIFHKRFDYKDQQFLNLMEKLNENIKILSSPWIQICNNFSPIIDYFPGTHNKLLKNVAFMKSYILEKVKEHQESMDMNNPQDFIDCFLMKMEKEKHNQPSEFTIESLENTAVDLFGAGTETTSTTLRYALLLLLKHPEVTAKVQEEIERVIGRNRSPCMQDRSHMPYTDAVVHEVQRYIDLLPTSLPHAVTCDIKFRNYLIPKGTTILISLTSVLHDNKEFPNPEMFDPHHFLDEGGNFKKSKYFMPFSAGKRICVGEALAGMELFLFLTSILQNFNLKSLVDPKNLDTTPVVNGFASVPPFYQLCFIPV
Cytochrome P450 2C19, sequence (P33261 whole entry): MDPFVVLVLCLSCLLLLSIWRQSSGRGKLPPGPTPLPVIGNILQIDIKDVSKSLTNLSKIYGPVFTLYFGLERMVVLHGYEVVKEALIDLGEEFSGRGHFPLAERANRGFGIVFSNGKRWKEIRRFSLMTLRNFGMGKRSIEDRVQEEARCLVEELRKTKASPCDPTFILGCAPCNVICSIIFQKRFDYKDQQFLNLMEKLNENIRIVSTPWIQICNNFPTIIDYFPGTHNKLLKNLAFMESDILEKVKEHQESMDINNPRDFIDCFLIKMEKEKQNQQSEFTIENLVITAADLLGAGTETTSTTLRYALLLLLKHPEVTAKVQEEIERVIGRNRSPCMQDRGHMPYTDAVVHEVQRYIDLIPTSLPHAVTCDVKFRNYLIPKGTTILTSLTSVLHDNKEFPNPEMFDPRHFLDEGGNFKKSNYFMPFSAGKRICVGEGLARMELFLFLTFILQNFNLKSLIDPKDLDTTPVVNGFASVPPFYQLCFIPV

C[C@@H]1c2ccccc2CN1CC1=NCCN1
AC50 [1]: 31.6 µM (inconclusive) | AC50 [2]: 31.6 µM (inconclusive)

CC(=O)N1CCC2(CC1)CCN(c1ccncc1)CC2
AC50 [3]: 25.1 µM (inconclusive)

COCC(=O)Oc1c(S(=O)(=O)c2ccc(C)cc2)c(C)nn1-c1ccccc1
AC50 ([4]; read-out: AC50): 28.2 µM (inconclusive) | AC50 [1]: 6.31 µM (inconclusive)

CC(C)[C@@H]1CN[C@H](C(=O)O)[C@@H]1CC(=O)O
AC50 [1]: 39.8 µM (inconclusive)

N=C(C[C@@H](O)COc1ccccc1-c1ccccc1)N1CCCCC1
AC50 [1]: 39.8 µM (inconclusive)

COc1ccc(Cl)cc1C(=O)Nn1cnc2ccccc2c1=O
AC50 ([4]; read-out: AC50): 11.2 µM (inconclusive) | AC50 [2]: 25.1 µM (inconclusive)

Cn1cccc1C(=O)N1CCC2(CCCN(Cc3ccncc3)C2)CC1
AC50 ([4]; read-out: AC50): 15.8 µM (inconclusive) | AC50 [1]: 15.8 µM (inconclusive) | AC50 [2]: 3.98 µM (inconclusive)

NC(=O)CC(NC(=O)c1ccc(Br)cc1)c1ccc(NCc2ccc(F)cc2)c([N+](=O)[O-])c1 (configuration not stated)
AC50 [5]: 3.96 µM (active)

O=C(CSc1cn(Cc2ccccc2)c2ccccc12)Nc1nccs1
EC50 [6]: 0.244 µM (active) | EC50 [7]: 5.48 µM (active)

O=S(=O)(NCc1cn2ccsc2n1)c1ccc(Oc2ccccc2)cc1
AC50 [1]: 5.01 µM (inconclusive)

Cc1cccc(NC(=N)Nc2nc(C)cc(C)n2)c1
EC50 [8]: 10.7 µM (active)

N#C/C(=C(/O)c1ccc2c(c1)OCO2)c1nc2cc(C(F)(F)F)ccc2s1
EC50 [9]: 2.89 µM (active) | EC50 [10]: 4.33 µM (active)

CC(=O)Nc1ccc(C2=NN(CC#N)C(=O)SC2)cc1
AC50 [1]: 15.8 µM (inconclusive) | AC50 [3]: 8.91 µM (inconclusive)

COc1ccc(NC(=O)C2(c3ccc(NC(=O)c4ccc(OC(C)=O)cc4)cc3)CCCC2)cc1
AC50 [3]: 1.26 µM (inconclusive)

CC(=O)Nc1ccc(S(=O)(=O)NC(CC(=O)NCCCN2CCOCC2)C(C)C)cc1 (configuration not stated)
AC50 [2]: 31.6 µM (inconclusive)

Cc1ccc(S(=O)(=O)N/N=C/c2ccc(OC3CSC3)cc2)cc1
AC50 ([4]; read-out: AC50): 4.47 µM (inconclusive) | EC50 [8]: 5.51 µM (active)

Cn1cccc1C(=O)N1CCC[C@@]2(CCN(c3ccccn3)C2)C1
AC50 ([4]; read-out: AC50): 39.8 µM (inconclusive) | AC50 [1]: 31.6 µM (inconclusive) | AC50 [2]: 12.6 µM (inconclusive)

COc1ccc(N2CCN(C(S)=Nc3cccc(C)c3)CC2)cc1
AC50 [2]: 2.24 µM (inconclusive) | AC50 [3]: 0.00562 µM (inconclusive)

O=C(O)C(Cc1ccccc1)Cc1ccccc1
AC50 [1]: 0.00501 µM (inconclusive)

COCCCNC(=O)[C@H]1N2C(=O)c3ccccc3C2SC1(C)C (some centres not stated)
EC50 [8]: > 53 µM (inactive)

N#Cc1cccc(NC(=O)N2CC3(CCN(C(=O)c4ccco4)CC3)C2)c1
AC50 ([4]; read-out: AC50): 2 µM (inconclusive) | AC50 [1]: 25.1 µM (inconclusive)

O=C(N/N=C/c1cc([N+](=O)[O-])ccc1O)c1c[nH]c2ccccc12
AC50 [5]: 6.85 µM (active)

CC1CCCC(NC(=O)C2CCN(S(=O)(=O)N3CCOCC3)CC2)C1C (configuration not stated)
AC50 [2]: 11.2 µM (inconclusive)

CSc1nc(C)cc(OCC(=O)N/N=C/c2ccccc2O)n1
AC50 [5]: 3.38 µM (active)

O=C(CCn1cnc(-c2ccccc2)c1-c1ccccc1)N/N=C/c1ccccc1O
EC50 [9]: 0.47 µM (active) | EC50 [10]: 2.13 µM (active)

N#Cc1c(-c2ccc(F)cc2)cc(C2CC2)nc1SCC(=O)c1cccs1
EC50 [8]: > 53 µM (inactive)

C=CCN1C[C@H](C)N([C@H](c2ccc(C(=O)N(CC)CC)cc2)c2cccc(O)c2)C[C@H]1C
AC50 [1]: 39.8 µM (inconclusive)

CC(=O)c1ccc(NC(S)=NCCc2cccc(Cl)c2)cc1
EC50 [6]: 2.64 µM (active) | EC50 [7]: > 120 µM (not active)

COc1ccc([N+](=O)[O-])cc1NC1C2CC3CC(C2)CC1C3 (configuration not stated)
AC50 [2]: 11.2 µM (inconclusive) | AC50 [3]: 22.4 µM (inconclusive)

Cc1ccc(Nc2nnc(-c3ccc4c(c3)OCO4)o2)c(C)c1
AC50 [3]: 7.94 µM (inconclusive)

COc1ccc(O[C@H]2C=C[C@@H](c3ccccc3)O[C@H]2COC(=O)CC/C(C)=N\O[C@@H](C)CN2CCCc3nc(C)c(C)cc32)cc1
AC50 [3]: 3.98 µM (inconclusive)

CC(C)(C)c1ccc(C(=O)Nc2ccc(N3CCOCC3)cc2)cc1
AC50 [5]: 4.04 µM (active)

Cn1c(=O)c(-c2ccccc2)nc2cnc(OCc3ccccc3)nc21
AC50 ([4]; read-out: AC50): 39.8 µM (inconclusive) | AC50 [2]: 39.8 µM (inconclusive) | AC50 [3]: 20 µM (inconclusive)

COc1ccc(C(=O)C/C(=C\C(=O)c2ccc(C)cc2)c2ccccc2)cc1
EC50 [11]: 1.93 µM (active) | EC50 [12]: > 60 µM (not active) | AC50 [13]: 7 µM (active)

CN1CCN(Cc2nc3cccc4c3c([n+]2[O-])-c2ccccc2-4)CC1
AC50 [2]: 3.98 µM (inconclusive)

CC(=O)Nc1ccc(Sc2ncccc2C(=O)Nc2ccc(F)cc2)cn1
AC50 ([4]; read-out: AC50): 39.8 µM (inconclusive) | EC50 [8]: 1.97 µM (active) | AC50 [2]: 15.8 µM (inconclusive) | AC50 [3]: 10 µM (inconclusive)

O=C(NCc1ccccc1)C1=C[C@H](c2csc3ccccc23)C[C@H](OCCCCO)O1
AC50 [13]: 5.81 µM (active)

Cc1cccc(CNc2nc(-c3cccc(NS(C)(=O)=O)c3)nc3ccccc23)c1
AC50 [3]: 0.501 µM (inconclusive)

Clc1ccccc1-c1nc(NC2CCNCC2)c2ccccc2n1
AC50 [1]: 20 µM (inconclusive)

COCC(=O)N1CCC2(CCN(Cc3ccncc3)CC2)CC1
AC50 [2]: 15.8 µM (inconclusive)

Cc1ccnc(N(C(=O)Nc2ccccc2)C2=NCC(C)(C)S2)c1
EC50 [6]: 0.709 µM (active) | EC50 [7]: > 120 µM (not active)

Cc1nnc(-c2cnn(-c3ccccc3)c2N)n1Cc1ccc(F)cc1
AC50 [2]: 25.1 µM (inconclusive)

O=C(CNS(=O)(=O)c1cccs1)N1CCC2(CC1)OCCO2
AC50 [3]: 39.8 µM (inconclusive)

COc1ccc(Oc2nnc(C)c3ccccc23)cc1
EC50 [6]: 2.76 µM (active) | EC50 [7]: 5.97 µM (active)

CCC(=O)NCCNC(=O)c1c(SC)nsc1SC
AC50 ([4]; read-out: AC50): 39.8 µM (inconclusive) | AC50 [1]: 3.16 µM (inconclusive) | AC50 [3]: 12.6 µM (inconclusive)

COc1ccc2[nH]c(/C(C#N)=C\c3ccc(Oc4ccc([N+](=O)[O-])cn4)cc3)nc2c1
AC50 [13]: 3.64 µM (active)

O[C@@H]1[C@@H]2c3cc4c(cc3CN3CCC(=C[C@@H]1O)[C@H]23)OCO4
AC50 [1]: 15.8 µM (inconclusive)

COc1ccccc1/C=C/C=N/N1CCN(Cc2cccc3ccccc23)CC1
AC50 [2]: 12.6 µM (inconclusive)

CCCOc1ccc(/C=C/C(=O)Nc2ccc([N+](=O)[O-])cc2C)cc1OC
AC50 [2]: 2.82 µM (inconclusive)

O=c1c(-c2cccc(Cl)c2)nc2cncnc2n1Cc1ccc(F)cc1
AC50 [2]: 15.8 µM (inconclusive)

CSc1nnc(-c2cc3c(-c4ccccc4)nn(C)c3s2)n1C
AC50 ([4]; read-out: AC50): 22.4 µM (inconclusive) | AC50 [2]: 31.6 µM (inconclusive) | AC50 [3]: 3.55 µM (inconclusive)

CCOC(=O)c1sc(SC)c2c1CCC/C2=N/OC
AC50 [13]: > 260 µM (inactive)

Cn1c(=O)c2c(nc(C(=N)SCC(=O)O)n2C)n(C)c1=O
AC50 [4]: inconclusive
